Test results published in US20240279215A1 (Cytokinetics, Incorporated, priority 2022, published 2024).

What follows are compounds tested against human NAMPT (Homo sapiens (Human), UniProt P43490) (assay: NMN fluorescence biochemical assay (human recombinant NAMPT enzyme assay)).
Method in brief: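 Activation of recombinant human NAMPT (6 nM) was tested with 2.5 mM ATP, 20 μM PRPP and 150 μM nicotinamide in 50 mM HEPES pH 7.2 for 60 min at ambient temperature. NMN was derivatized with acetophenone/KOH/formic acid and read by fluorescence (355/460 nm) after 40 min.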

Sequence of human NAMPT (P43490 whole entry): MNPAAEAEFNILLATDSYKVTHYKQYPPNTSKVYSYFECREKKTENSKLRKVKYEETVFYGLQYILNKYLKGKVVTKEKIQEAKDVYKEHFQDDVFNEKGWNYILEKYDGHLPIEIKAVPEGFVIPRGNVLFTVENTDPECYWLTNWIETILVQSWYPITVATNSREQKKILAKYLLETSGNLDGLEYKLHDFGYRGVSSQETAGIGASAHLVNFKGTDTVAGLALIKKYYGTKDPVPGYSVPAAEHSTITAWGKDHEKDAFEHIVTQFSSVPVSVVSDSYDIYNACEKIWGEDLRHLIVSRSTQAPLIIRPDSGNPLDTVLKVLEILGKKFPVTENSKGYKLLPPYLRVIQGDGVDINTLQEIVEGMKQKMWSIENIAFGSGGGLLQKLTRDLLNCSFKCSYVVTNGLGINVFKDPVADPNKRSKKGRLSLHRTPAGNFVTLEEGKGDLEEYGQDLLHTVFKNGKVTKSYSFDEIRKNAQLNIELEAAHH

Compound	AC1.4 Human [µM]	EC50 [µM]
CN(C)S(=O)(=O)N1C2CCC1CC(Cc1ccc(NC(=O)OCc3cnco3)cc1)C2 (stereo not shown) [Compound 405, oxazol-5-ylmethyl (4-((8-(N,N-dimethylsulfamoyl)-8-azabicyclo[3.2.1]octan-3-yl)methyl)phenyl)carbamate]	0.11	3.42
CS(=O)(=O)N1C2CCC1CC(Cc1ccc(NC(=O)OCc3cnco3)cc1)C2 (stereo not shown) [Compound 406, oxazol-5-ylmethyl (4-((8-(methylsulfonyl)-8-azabicyclo[3.2.1]octan-3-yl)methyl)phenyl)carbamate]	0.13	6.01
COC(=O)N1C2CCC1CC(Cc1ccc(NC(=O)OCc3cnco3)cc1)C2 (stereo not shown) [Compound 407, methyl 3-(4-(((oxazol-5-ylmethoxy)carbonyl)amino)benzyl)-8-azabicyclo[3.2.1]octane-8-carboxylate]	0.26	8.55
CN(C)C(=O)N1C2CCC1CC(Cc1ccc(NC(=O)OCc3cnco3)cc1)C2 (stereo not shown) [Compound 408, oxazol-5-ylmethyl (4-((8-(dimethylcarbamoyl)-8-azabicyclo[3.2.1]octan-3-yl)methyl)phenyl)carbamate]	0.05	3.44
CC(C)C(=O)N1C2CCC1CC(Cc1ccc(NC(=O)OCc3cnco3)cc1)C2 (stereo not shown) [Compound 409, oxazol-5-ylmethyl (4-((8-isobutyryl-8-azabicyclo[3.2.1]octan-3-yl)methyl)phenyl)carbamate]	0.20	26.8
CC(=O)N1C2CCC1CC(Cc1ccc(NC(=O)OCc3cnco3)cc1)C2 (stereo not shown) [Compound 410, oxazol-5-ylmethyl (4-((8-acetyl-8-azabicyclo[3.2.1]octan-3-yl)methyl)phenyl)carbamate]	0.13	4.19
CN(C)C(=O)N1CCC(c2ccc(NC(=O)OCc3cnco3)cc2F)CC1 [Compound 411, oxazol-5-ylmethyl (4-(1-(dimethylcarbamoyl)piperidin-4-yl)-3-fluorophenyl)carbamate]	0.04	19
CCC(=O)N1CCC(c2ccc(NC(=O)OCc3cnco3)cc2F)CC1 [Compound 412, oxazol-5-ylmethyl (3-fluoro-4-(1-propionylpiperidin-4-yl)phenyl)carbamate]	0.05	48.3
CC(=O)N1CCC(c2ccc(NC(=O)OCc3cnco3)cc2F)CC1 [Compound 413, oxazol-5-ylmethyl (4-(1-acetylpiperidin-4-yl)-3-fluorophenyl)carbamate]	0.10	25.6
CC(C)C(=O)N1CCC(c2ccc(NC(=O)OCc3cnco3)cc2F)CC1 [Compound 414, oxazol-5-ylmethyl (3-fluoro-4-(1-isobutyrylpiperidin-4-yl)phenyl)carbamate]	0.03	26.2
CS(=O)(=O)N1CCC(c2ccc(NC(=O)OCc3cnco3)cc2F)CC1 [Compound 415, oxazol-5-ylmethyl (3-fluoro-4-(1-(methylsulfonyl)piperidin-4-yl)phenyl)carbamate]	0.18	11.9
CN(C)S(=O)(=O)N1CCC(c2ccc(NC(=O)OCc3cnco3)cc2F)CC1 [Compound 416, oxazol-5-ylmethyl (4-(1-(N,N-dimethylsulfamoyl)piperidin-4-yl)-3-fluorophenyl)carbamate]	0.07	2.58
COC(=O)N1CCC(c2ccc(NC(=O)OCc3cnco3)cc2F)CC1 [Compound 417, methyl 4-(2-fluoro-4-(((oxazol-5-ylmethoxy)carbonyl)amino)phenyl)piperidine-1-carboxylate]	0.18	27
CCS(=O)(=O)N1CCC(Cc2ccc(NC(=O)OCc3cnco3)cc2)CC12CC2 (stereo not shown) [Compound 418, oxazol-5-ylmethyl (4-((4-(ethylsulfonyl)-4-azaspiro[2.5]octan-7-yl)methyl)phenyl)carbamate]	0.18	5.97
CS(=O)(=O)N1CCC(Cc2ccc(NC(=O)OCc3cnco3)cc2)CC12CC2 (stereo not shown) [Compound 419, oxazol-5-ylmethyl (4-((4-(methylsulfonyl)-4-azaspiro[2.5]octan-7-yl)methyl)phenyl)carbamate]	0.32	12.7
CS(=O)(=O)N1CC2CCC(C1)C2Cc1ccc(NC(=O)OCc2cnco2)cc1 (stereo not shown) [Compound 420, oxazol-5-ylmethyl (4-((3-(methylsulfonyl)-3-azabicyclo[3.2.1]octan-8-yl)methyl)phenyl)carbamate]	0.12	6.55
COC(=O)N1CC2CCC(C1)C2Cc1ccc(NC(=O)OCc2cnco2)cc1 (stereo not shown) [Compound 421, methyl 8-(4-(((oxazol-5-ylmethoxy)carbonyl)amino)benzyl)-3-azabicyclo[3.2.1]octane-3-carboxylate]	0.13	2.33
CN(C)C(=O)N1CC2CCC(C1)C2Cc1ccc(NC(=O)OCc2cnco2)cc1 (stereo not shown) [Compound 422, oxazol-5-ylmethyl (4-((3-(dimethylcarbamoyl)-3-azabicyclo[3.2.1]octan-8-yl)methyl)phenyl)carbamate]	0.07	11.5

Compound	AC1.4 Human [µM]	EC50 [µM]
CC(C)C(=O)N1CC2CCC(C1)C2Cc1ccc(NC(=O)OCc2cnco2)cc1 (stereo not shown) [Compound 423, oxazol-5-ylmethyl (4-((3-isobutyryl-3-azabicyclo[3.2.1]octan-8-yl)methyl)phenyl)carbamate]	0.18	15.4
CC(=O)N1CC2CCC(C1)C2Cc1ccc(NC(=O)OCc2cnco2)cc1 (stereo not shown) [Compound 424, oxazol-5-ylmethyl (4-((3-acetyl-3-azabicyclo[3.2.1]octan-8-yl)methyl)phenyl)carbamate]	0.04	1.13
O=C(Nc1ccc(CC2C3CCC2CN(C2COC2)C3)cc1)OCc1cnco1 (stereo not shown) [Compound 425, oxazol-5-ylmethyl (4-((3-(oxetan-3-yl)-3-azabicyclo[3.2.1]octan-8-yl)methyl)phenyl)carbamate]	0.57	52
O=C(Nc1ccc(CC2C3CCC2CNC3)cc1)OCc1cnco1 (stereo not shown) [Compound 426, oxazol-5-ylmethyl (4-((3-azabicyclo[3.2.1]octan-8-yl)methyl)phenyl)carbamate]	1.62	32.4
CCS(=O)(=O)N1CCC(c2ccc(NC(=O)OCc3cnco3)cc2)CC1 [Compound 427, oxazol-5-ylmethyl (4-(1-(ethylsulfonyl)piperidin-4-yl)phenyl)carbamate]	0.16	2.64
O=C(Nc1ccc(C2CCN(S(=O)(=O)N3CCC3)CC2)cc1)OCc1cnco1 [Compound 428, oxazol-5-ylmethyl (4-(1-(azetidin-1-ylsulfonyl)piperidin-4-yl)phenyl)carbamate]	0.07	2.94
O=C(Nc1ccc(C2CCN(C(=O)N3CCC3)CC2)cc1)OCc1cnco1 [Compound 429, oxazol-5-ylmethyl (4-(1-(azetidine-1-carbonyl)piperidin-4-yl)phenyl)carbamate]	0.19	41.6
CCC(=O)N1CCC(c2ccc(NC(=O)OCc3cnco3)cc2)CC1 [Compound 430, oxazol-5-ylmethyl (4-(1-propionylpiperidin-4-yl)phenyl)carbamate]	0.11	19.8
O=C(Nc1ccc(C2CCN(C(=O)C3CC3)CC2)cc1)OCc1cnco1 [Compound 431, oxazol-5-ylmethyl (4-(1-(cyclopropanecarbonyl)piperidin-4-yl)phenyl)carbamate]	0.17	27.5
CN(C)S(=O)(=O)N1CCC(c2ccc(NC(=O)OCc3cnco3)cc2)CC1 [Compound 432, oxazol-5-ylmethyl (4-(1-(N,N-dimethylsulfamoyl)piperidin-4-yl)phenyl)carbamate]	0.07	4.73
CN(C)S(=O)(=O)N1CC2CC(C1)C2Cc1ccc(NC(=O)OCc2cnco2)cc1 (stereo not shown) [Compound 433, oxazol-5-ylmethyl (4-((3-(N,N-dimethylsulfamoyl)-3-azabicyclo[3.1.1]heptan-6-yl)methyl)phenyl)carbamate]	0.21	7.43
CS(=O)(=O)N1CC2CC(C1)C2Cc1ccc(NC(=O)OCc2cnco2)cc1 (stereo not shown) [Compound 434, oxazol-5-ylmethyl (4-((3-(methylsulfonyl)-3-azabicyclo[3.1.1]heptan-6-yl)methyl)phenyl)carbamate]	0.06	2.11
COC(=O)N1CC2CC(C1)C2Cc1ccc(NC(=O)OCc2cnco2)cc1 (stereo not shown) [Compound 435, methyl 6-(4-(((oxazol-5-ylmethoxy)carbonyl)amino)benzyl)-3-azabicyclo[3.1.1]heptane-3-carboxylate]	0.08	7.52
CN(C)C(=O)N1CC2CC(C1)C2Cc1ccc(NC(=O)OCc2cnco2)cc1 (stereo not shown) [Compound 436, oxazol-5-ylmethyl (4-((3-(dimethylcarbamoyl)-3-azabicyclo[3.1.1]heptan-6-yl)methyl)phenyl)carbamate]	0.08	6.04
CC(C)C(=O)N1CC2CC(C1)C2Cc1ccc(NC(=O)OCc2cnco2)cc1 (stereo not shown) [Compound 437, oxazol-5-ylmethyl (4-((3-isobutyryl-3-azabicyclo[3.1.1]heptan-6-yl)methyl)phenyl)carbamate]	0.27	9.67
CC(=O)N1CC2CC(C1)C2Cc1ccc(NC(=O)OCc2cnco2)cc1 (stereo not shown) [Compound 438, oxazol-5-ylmethyl (4-((3-acetyl-3-azabicyclo[3.1.1]heptan-6-yl)methyl)phenyl)carbamate]	0.04	2.7
O=C(Nc1ccc(CC2C3CC2CN(C2COC2)C3)cc1)OCc1cnco1 (stereo not shown) [Compound 439, oxazol-5-ylmethyl (4-((3-(oxetan-3-yl)-3-azabicyclo[3.1.1]heptan-6-yl)methyl)phenyl)carbamate]	1.47	25.6
